Results on two compounds are retold here after patent US8057829B2, “Methods for repelling insects using sesquiterpene hydrocarbons and their derivatives” (Sterling International Inc., priority 2008, dated 2011).

The subject of assay [1] is male false stable fly Muscina stabulans antenna and female mosquito Aedes (Ochlerotatus) increpitus Dyar antenna. The experiment in a line: GC-EAD responses of false stable fly and Aedes increpitus to a synthetic mixture. The note with it: about 100 ng of each compound, FIG. 5. Here is the method:
The GC-EAD responses of the male false stable fly Muscina stabulans antenna and the female mosquito Aedes (Ochlerotatus) increpitus Dyar antenna were tested on a synthetic mixture of linalool and two representative sesquiterpene hydrocarbons, β-caryophyllene and α-humulene, and one sesquiterpene oxide, β-caryophyllene oxide, with about 100 ng of each compound in the mixture.
(§1) The following procedures were employed to test the EAD response of an insect antenna to a repellent compound. The GC-EAD technique provides an efficient tool for screening behaviorally active repellents. Several synthetic mixtures of potential insect repellent candidates, mostly sesquiterpene hydrocarbons and derivatives, were analyzed in splitless mode using a Varian CP-3800 GC equipped with a polar column (Innowax; 1.0 μm film thickness, 30 m×0.53 mm ID; J & W Scientific), and a 1:1 effluent splitter that allowed simultaneous flame ionization detection (FID) and EAD of the separated volatile compounds. Helium was used as the carrier gas, and the injector temperature was 220° C. The column temperature was 50° C. for 2 min, rising to 240° C. at 10° C./min, then held for 10 min. The outlet for the EAD was held in a humidified air stream flowing at 0.5 liter/min. over an antennal preparation. A glass capillary indifferent electrode filled with Beadle-Ephrussi Ringer, and grounded via a silver wire, was inserted into the severed insect's head with the antennae. A similar recording electrode connected to a high-impedance DC amplifier with automatic baseline drift compensation was placed in contact with the distal end of one antenna (Zhang et al., Chemoecology, 10:69-80 (2000)). The antennal signals were stored and analyzed on a PC equipped with a serial IDAC interface box and the program EAD ver. 2.5 (Syntech, Hilversum, The Netherlands). The compound 1-octen-3-ol (known attractant for many flies and mosquitoes) was included in most of the synthetic mixtures, as a positive control. The results of the experiments are shown in FIGS. 1-10 and described above.

For assay [2], the system named is antennae of Musca domestica, Lucillia sericata, Sarcophaga sp., Muscina stabulans, Culex pipiens, Aedes increpitus. The experiment in a line: GC-EAD responses of several flies and two mosquitoes to a synthetic mixture. Particulars: about 100 ng of each compound, FIG. 6. Here is the method:
The GC-EAD responses of several species of flies and two species of mosquito antennae were tested on a synthetic mixture of 1-octen-3-ol, linalool, two representative sesquiterpene hydrocarbons, β-caryophyllene and α-humulene, ZE-nepetalactone, EZ-nepetalactone, and two known insect repellents, DEET, and SS220, with about 100 ng of each compound in the mixture. DEET and SS220 are used as positive controls in the experiment. The compound 1-octen-3-ol is a known attractant for the insects and is also used as a positive control. The insects tested are species of Musca domestica, Lucillia sericata, Sarcophaga sp., Muscina stabulans, Culex pipiens, and Aedes increpitus.
as §1, with “2.5 (Syntech, Hilversum, The Netherlands). The compound 1-octen-3-ol (known attractant for many flies and mosquitoes) was included in most of the synthetic mixtures, as a positive control. The results of the experiments are shown in FIGS. 1-10 and described above.” left out

Assay [3] concerns female antennae of sand fly Phlebotomus papatasi and mosquitoes Aedes aegypti, Anopheles gambiae, Anopheles stephensi. The assay is described as follows: GC-EAD responses of sand fly and three mosquitoes to synthetic mixtures. Particulars: about 100 ng of each compound, on one or more of the sand fly or the mosquitoes, FIGS. 9 and 10. On the procedure:
The GC-EAD responses of female antennae of the sand fly, Phlebotomus papatasi, and three species of mosquitoes, Aedes aegypti, Anopheles gambiae, and anopheles stephensi were tested on a synthetic mixture of 1-octen-3-ol, six sesquiterpene hydrocarbons including (+)-longipinene, (−)-isolongifolene, (+)-longifolene, β-caryophyllene, isolongifolenone, and α-humulene, and several known insect repellents including ZE-nepetalactone, EZ-nepetalactone, with about 100 ng of each compound in the mixture.
The GC-EAD responses of female antennae of the sand fly, Phlebotomus papatasi, and three species mosquitoes, Aedes aegypti, Anopheles gambiae, and anopheles stephensi were tested on a synthetic mixture of 1-octen-3-ol, linalool, β-caryophyllene oxide, isocaryophyllene, β-caryophyllene, and α-humulene, and DEET, with about 100 ng of each compound in the mixture.
as §1

A further assay concerns houseflies. The assay is described as follows: Laboratory sticky trap bioassay of spatial repellency with egg powder attractant. Type of assay: in vivo, housefly (Musca domestica). On the procedure: Laboratory bioassay tests were carried out to investigate the efficacy of some of the EAD-active compounds described above to act as spatial repellents against several insects. The procedure for the bioassay tests is described in Example 2 below. Briefly stated, the bioassay included using egg powder (EP) as an attractant for flies, while the compound whose insect repellency was being tested was placed in proximity to the egg powder. In FIGS. 11-13, the bioassay was carried out on houseflies using devices known by the designation Trécé Pherocon® VI sticky traps.
The following lab bioassay tests were employed to illustrate the efficacy of the compounds to effectively act as spatial repellents for flies. Three sets of tests were conducted in a fly testing room (23° C., 70% RH, and 12/12 (L/D) light regime illuminated by fluorescent lights). Two sets of tests were carried out using Trécé Pherocon® VI traps with sticky inserts, which were set up on poles evenly spaced on a rotating table. The traps were ca. 1 m above a table surface, and ca. 1 m apart from each other. Two grams of egg powder in a white cap (4 cm in diameter, 0.5 cm in height) used as an attractant was put on the center of the sticky insert in the sticky trap. The potential repellent candidate chemicals were loaded into polyethylene bags, and were hung under the inner roof of the traps, 1-1.5 cm above the egg powder attractant. A control had the empty white cap and blank polyethylene bag, while the positive control had only the egg powder and an empty polyethylene bag. The test table was rotated 1.5 r.p.h. […] About 200-300 houseflies (2-3 days old) were released into the testing room for each test. Tests were normally run from 8:00 am to 5:00 pm, and the numbers of houseflies caught in each trap were counted after each test. The results of these tests are shown in FIGS. 11-13 and described above.

The subject of assay [4] is housefly (Musca domestica) antenna. The experiment in a line: GC-EAD antennal response, housefly. The note with it: female housefly antenna; synthetic mixture, about 100 ng of each compound; FIG. 3.
Description: The sesquiterpene hydrocarbons and their derivatives disclosed herein have been identified as suitable insect repellents by testing via a gas chromatographic-electroantennographic detection (GC-EAD) method as described in Example 1 below. This method can be used to efficiently screen for potentially behaviorally active compounds, including insect repellents, attractants, deterrents, or attraction-inhibitors from complex natural sources or synthetic mixtures.
The GC-EAD responses of the female housefly antenna were tested on a synthetic mixture of 1-octen-3-ol, a known attractant used as a positive control, and representative sesquiterpene hydrocarbons and derivatives, (+)-longipinene, (−)-isolongifolene, (+)-longifolene, β-caryophyllene, α-humulene, and isolongifolenone, with about 100 ng of each compound in the mixture.
The GC-EAD responses of the male housefly antenna were tested on a synthetic mixture of 1-octen-3-ol, and two representative sesquiterpenes, β-caryophyllene and isocaryophyllene, with about 100 ng of each compound in the mixture.
as §1

In assay [5] the test system is antennae of housefly, sand fly, and mosquitoes Aedes aegypti, Anopheles gambiae, Anopheles stephensi. The experiment in a line: GC-EAD antennal responses to SPME samples of clove essential oil. The note with it: component of clove essential oil SPME sample; response by one or more of the insects; FIG. 1. Here is the method: The GC-EAD antennal response of a female housefly (Musca domestica), sand fly (Phlebotomus papatasi), and mosquitoes including the species Aedes aegypti, Anopheles gambiae, and Anopheles stephensi were tested with clove essential oil. FIG. 1 is a simultaneous recording of GC flame ionization detection (FID) and electroantennographic detection (EAD) of the insect antennae to solid phase microextraction (SPME: CAR/PDMS) samples of clove essential oil in a 20 ml glass vial for 20 sec.
as §1, with “The results of the experiments are shown in FIGS. 1-10 and described above.” left out

Each structure is given as a SMILES string.

With `C=CC(C)(O)CCC=C(C)C` (stereo not shown) [linalool, 3,7-dimethyl-3-hydroxy-1,6-octadiene], the figures for the GC-EAD antennal activity entry in assay [1], in assay [2] and in assay [3] were “active on at least one of the insects tested”, “active on at least one of the insects tested” and “antennally active”, respectively. Besides, the “number of house flies per trap” value with houseflies (egg powder attractant plus repellent, FIG. 11, egg powder alone 44) is 5.5 house flies per trap. Further, the “repellency against houseflies, in words” value with houseflies (laboratory trap bioassay with egg powder attractant) is on record as “effective housefly repellents”.
As to `C/C1=C\CC/C(C)=C/CC(C)(C)/C=C/C1` [α-humulene], the GC-EAD antennal activity result is “active” in assay [4]; “EAD-active” in assay [5]; “active on at least one of the insects tested” in assay [1]; “active on at least one of the insects tested” in assay [2]; “antennally active” in assay [3].
